In US6369080B2, “Selective factor Xa inhibitors” (COR Therapeutics, Inc., priority 1996, dated 2002) one finds IC50 data, which are given here for one compound.

The experiment concerns the target T1, thrombin (Homo sapiens, UniProt P00734).
T1 construct: converts the zymogen prothrombin into the active procoagulant thrombin
The experiment is described as follows: Thrombin amidolytic assay (chromogenic substrate Chromozym TH). In kind it is biochemical. Particulars: room temperature, pH 7.5, 5 minutes preincubation. Here is the method:
The compounds of the present invention are first dissolved in a buffer to give solutions containing concentrations such that assay concentrations range from 0-100 μM. In assays for thrombin, prothrombinase and factor Xa, a synthetic chromogenic substrate would be added to a solution containing a test compound and the enzyme of interest and the residual catalytic activity of that enzyme would then be determined spectrophotometrically.
The IC50 of a compound is determined from the substrate turnover. The IC50 is the concentration of test compound giving 50% inhibition of the substrate turnover.
Factor Xa and thrombin assays are performed at room temperature, in 0.02 M Tris HCl buffer, pH 7.5, containing 0.15 M NaCl. The rates of hydrolysis of the paranitroanilide substrate S-2765 (Chromogenix) for factor Xa, and the substrate Chromozym TH (Boehringer Mannheim) for thrombin following preincubation of the enzyme with the test compound for 5 minutes at room temperature are determined using a Softmax 96-well plate reader (Molecular Devices), monitored at 405 nm to measure the time dependent appearance of p-nitroanilide.

The compound `N=C(N)NCCC[C@H](NC(=O)Cn1cccc(NS(=O)(=O)Cc2ccccc2)c1=O)C(=O)c1nccs1` [Example 9] yielded a half-inhibitory concentration (IC50) of 8 nM.

One may read the IC50 as the concentration at which inhibition is half-maximal. Low values mean higher potency, high ones lower potency.
